Experimental findings from patent US9187455B2, “Substituted pyridazines as PDE10A inhibitors” (Hoffmann-La Roche Inc., priority 2009, dated 2015) are described below.

Usually IC50 stands for the concentration needed to halve the response being measured.

T1 sequence (Q9Y233 715-1055): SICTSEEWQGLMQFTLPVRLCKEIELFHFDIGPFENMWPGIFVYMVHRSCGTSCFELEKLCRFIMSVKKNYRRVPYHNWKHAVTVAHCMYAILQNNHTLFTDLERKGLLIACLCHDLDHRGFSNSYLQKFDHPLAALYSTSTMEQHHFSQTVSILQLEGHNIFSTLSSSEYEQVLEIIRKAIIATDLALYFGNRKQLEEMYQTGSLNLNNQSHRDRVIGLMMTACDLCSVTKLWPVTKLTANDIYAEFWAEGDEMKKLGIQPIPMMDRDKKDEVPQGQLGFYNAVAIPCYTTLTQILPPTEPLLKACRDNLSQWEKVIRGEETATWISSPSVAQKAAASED

This assay has as its target T1, PDE10A2 (Homo sapiens, UniProt Q9Y233).
T1 construct: residues serine 449 to aspartate 789; His6 (H6) with Gateway linker and thrombin cleavage site (N, cleaved yes); made in house; host or cells: E. coli BL21(DE3) pLysS
In words: PDE10A2 Scintillation Proximity Assay (SPA), [3H]-cGMP hydrolysis. Format: biochemical. Particulars: catalytic domain of human PDE10A2 (S449-D789), 0.25 nM enzyme, 50 nM cGMP + 50 nM [3H]-cGMP, 30 minutes at room temperature; read-out: PDE10A2 inhibition IC50. Here is the method:
The following tests were carried out in order to determine the activity of the compounds of the present invention. PDE10 activity of the compounds of the present invention is determined using a Scintillation Proximity Assay (SPA)-based method similar to the one previously described (Fawcett, L. et al., ProcNatl Acad Sci USA (2000) 97(7):3702-3707).
PDE10A1 and PDE10A2 are two splice variants of PDE10A. There are these 2 splice variants known, which differ in the N-terminal part of the protein. The catalytic domains of PDE10A1 and PDE10A2 are identical. The assay for PDE10A2 described below is therefore also representative for PDE10A1 and also for PDE10A in general.
The PDE10A2 assay was performed in a two step procedure in 96-well micro titer plates. The reaction mixture of 80 μl contained 20 mM HEPES/10 mM MgCl2/[…] (pH 7.5), 50 nM cGMP (Sigma) and 50 nM [^3H]-cGMP (GE Healthcare), 0.25 nM PDE10A2 with or without a specific test compound. A range of concentrations of the potential inhibitor was used to generate data for calculating the concentration of inhibitor resulting in 50% of the effect (e.g. IC50, the concentration of the competitor inhibiting PDE10A2 activity 50%). Non-specific activity was tested without the enzyme. The reaction was initiated by addition of the substrate solution (cGMP and [^3H]-cGMP) and allowed to progress for 30 minutes at room temperature. The reaction was terminated by transferring 50 μl of the reaction mixture into an OptiPlate (Perkin Elmer) containing 25 μl of YSi-SPA scintillation beads (GE Healthcare) in 18 mM zinc sulphate solution (stop reagent). After 1 h under shaking, the plate was centrifuged one minute at 1000 rpm to allow beads to settle. Afterwards, radioactive counts were measured on a Perkin Elmer TopCount Scintillation plate reader.
The catalytic domain of human PDE10A2, residues serine 449 to aspartate 789, was amplified by PCR using cDNA (Origene) and the oligonucleotides 5′-GGGGACAAGTTTGT […]-3′ (with AttB1 recombination site in bold and thrombin protease cleavage site in italics) and 5′-[…]-3′ (with AttB2 recombination site in bold) which conferred Gateway recombination sites. The PCR product was used in a BP recombination reaction with pDONR221 to generate pENTR Thm-PDE10A2(S449-D789) which was DNA sequence verified and then used in an LR recombination reaction with a Gateway modified version of pET11a. The resulting expression vector, placT7.2H6-(gwl)-Thm-PDE10A2(S449-D789) was DNA sequence confirmed and transformed into E. coli strain BL21(DE3) pLysS and recombinant protein was produced in TB medium at 20° C. by induction to a final IPTG concentration of 0.5 mM at an optical density of 1.0 at 600 nm for 20 hours. About 30% of the protein was in the soluble fraction of the cell homogenate. The protein was purified using sequential chromatography on Ni-NTA and HiTrapQ/HiTrapS. After thrombin digest at room temperature a HiTrapChelating/HiTrap Benzamindin chromatography removed impurities, uncleaved protein and thrombin. Final purification of PDE10A2(S449-D789) was performed on a Superdex 75 size exclusion chromatography equilibrated with 25 mM HEPES pH 8.4, 0.15 M NaCl. The yield of pure protein was 2 mg/liter of culture volume is relatively low. The purity of the protein was >95%, monomeric and monodisperse as shown by SDS-PAGE, HPLC and analytical ultracentrifugation.
A general note: Scintillation proximity formats need no separation of bound from free tracer.
On to `Cc1cncc(-n2ccc(=O)c(-c3ccnn3-c3cccc(F)c3)n2)c1` [Example 37, 3-[2-(3-Fluoro-phenyl)-2H-pyrazol-3-yl]-1-(5-methyl-pyridin-3-yl)-1H-pyridazin-4-one], for which the IC50 came out at 149 nM.
With `Cc1cc(-n2ccc(=O)c(-c3ccnn3-c3ccc4c(c3)OCCO4)n2)ccn1` [Example 38, 3-[2-(2,3-Dihydro-benzo[1,4]dioxin-6-yl)-2H-pyrazol-3-yl]-1-(2-methyl-pyridin-4-yl)-1H-pyridazin-4-one] the figure was 437 nM.
On to `Cc1cc(-n2ccc(=O)c(-c3ccnn3-c3cccc(F)c3)n2)ccn1` [Example 39, 3-[2-(3-Fluoro-phenyl)-2H-pyrazol-3-yl]-1-(2-methyl-pyridin-4-yl)-1H-pyridazin-4-one], for which the half-inhibitory concentration (IC50) came out at 2560 nM.
As for `COc1cc(-n2ccc(=O)c(-c3ccnn3-c3cccc(F)c3)n2)ccn1` [Example 40, 3-[2-(3-Fluoro-phenyl)-2H-pyrazol-3-yl]-1-(2-methoxy-pyridin-4-yl)-1H-pyridazin-4-one], the IC50 was 414 nM.
As for `O=c1ccn(-c2ccnc(N3CCOCC3)c2)nc1-c1ccnn1-c1ccc2c(c1)OCCO2` [Example 41, 3-[2-(2,3-Dihydro-benzo[1,4]dioxin-6-yl)-2H-pyrazol-3-yl]-1-(2-morpholin-4-yl-pyridin-4-yl)-1H-pyridazin-4-one], the IC50 worked out at 82 nM.
Take `O=c1ccn(-c2ccnc(N3CCOCC3)c2)nc1-c1ccnn1-c1cccc(F)c1` [Example 42, 3-[2-(3-Fluoro-phenyl)-2H-pyrazol-3-yl]-1-(2-morpholin-4-yl-pyridin-4-yl)-1H-pyridazin-4-one]: the IC50 was 1420 nM.
As to `N#Cc1cc(-n2ccc(=O)c(-c3ccnn3-c3ccc4c(c3)OCCO4)n2)ccn1` [Example 43, 4-{3-[2-(2,3-Dihydro-benzo[1,4]dioxin-6-yl)-2H-pyrazol-3-yl]-4-oxo-4H-pyridazin-1-yl}-pyridine-2-carbonitrile], the IC50 was 663 nM.
Turning to `N#Cc1cc(-n2ccc(=O)c(-c3ccnn3-c3cccc(F)c3)n2)ccn1` [Example 44, 4-{3-[2-(3-Fluoro-phenyl)-2H-pyrazol-3-yl]-4-oxo-4H-pyridazin-1-yl}-pyridine-2-carbonitrile], the IC50 was 2290 nM.
In the case of `CS(=O)(=O)c1cncc(-n2ccc(=O)c(-c3ccnn3-c3cccc(F)c3)n2)c1` [Example 45, 3-[2-(3-Fluoro-phenyl)-2H-pyrazol-3-yl]-1-(5-methanesulfonyl-pyridin-3-yl)-1H-pyridazin-4-one], the IC50 turned out to be 259 nM.
For the molecule `O=c1ccn(-c2ccnc(O)c2)nc1-c1ccnn1-c1ccc2c(c1)OCCO2` [Example 46, 3-[2-(2,3-Dihydro-benzo[1,4]dioxin-6-yl)-2H-pyrazol-3-yl]-1-(2-hydroxy-pyridin-4-yl)-1H-pyridazin-4-one], the IC50 worked out at 57 nM.
As to `O=c1ccn(-c2cccnc2)nc1-c1ccnn1-c1cc(F)ccc1F` [Example 47, 3-[2-(2,5-Difluoro-phenyl)-2H-pyrazol-3-yl]-1-pyridin-3-yl-1H-pyridazin-4-one], the IC50 is 352 nM.
With `Cc1cncc(-n2ccc(=O)c(-c3ccnn3-c3ccnc4ccc(F)cc34)n2)c1` [Example 48, 3-[2-(6-Fluoro-quinolin-4-yl)-2H-pyrazol-3-yl]-1-(5-methyl-pyridin-3-yl)-1H-pyridazin-4-one] the figure was 25 nM; with `O=c1ccn(-c2cncc(F)c2)nc1-c1ccnn1-c1ccnc2ccc(F)cc12` [Example 49, 1-(5-Fluoro-pyridin-3-yl)-3-[2-(6-fluoro-quinolin-4-yl)-2H-pyrazol-3-yl]-1H-pyridazin-4-one], 163 nM; with `O=c1ccn(-c2cccnc2)nc1-c1ccnn1-c1ccnc2ccc(F)cc12` [Example 50, 3-[2-(6-Fluoro-quinolin-4-yl)-2H-pyrazol-3-yl]-1-pyridin-3-yl-1H-pyridazin-4-one], 87 nM.
Consider `O=c1ccn(-c2cncc(Cl)c2)nc1-c1ccnn1-c1ccnc2ccccc12` [Example 51, 1-(5-Chloro-pyridin-3-yl)-3-(2-quinolin-4-yl-2H-pyrazol-3-yl)-1H-pyridazin-4-one], for which the IC50 came out at 20 nM.
For the molecule `O=c1ccn(-c2cncc(Cl)c2)nc1-c1ccnn1-c1ccnc2ccc(F)cc12` [Example 52, 1-(5-Chloro-pyridin-3-yl)-3-[2-(6-fluoro-quinolin-4-yl)-2H-pyrazol-3-yl]-1H-pyridazin-4-one], the IC50 was 177 nM.
With `O=c1ccn(-c2cncc(Cl)c2)nc1-c1ccnn1-c1cccc(Cl)c1` [Example 53, 3-[2-(3-Chloro-phenyl)-2H-pyrazol-3-yl]-1-(5-chloro-pyridin-3-yl)-1H-pyridazin-4-one], the IC50 stood at 65 nM.
`O=c1ccn(-c2ccnc(Cl)c2)nc1-c1ccnn1-c1ccnc2ccccc12` [Example 54, 1-(2-Chloro-pyridin-4-yl)-3-(2-quinolin-4-yl-2H-pyrazol-3-yl)-1H-pyridazin-4-one]: the IC50 was found to be 66 nM.
Under `O=c1ccn(-c2ccnc(Cl)c2)nc1-c1ccnn1-c1ccnc2ccc(F)cc12` [Example 55, 1-(2-Chloro-pyridin-4-yl)-3-[2-(6-fluoro-quinolin-4-yl)-2H-pyrazol-3-yl]-1H-pyridazin-4-one] stands 122 nM; under `O=c1ccn(-c2ccnc(Cl)c2)nc1-c1ccnn1-c1cccc(Cl)c1` [Example 56, 3-[2-(3-Chloro-phenyl)-2H-pyrazol-3-yl]-1-(2-chloro-pyridin-4-yl)-1H-pyridazin-4-one], 50 nM.
`O=c1ccn(-c2ccnc(Cl)c2)nc1-c1ccnn1-c1ccnc(Cl)c1` [Example 57, 1-(2-Chloro-pyridin-4-yl)-3-[2-(2-chloro-pyridin-4-yl)-2H-pyrazol-3-yl]-1H-pyridazin-4-one]: the IC50 stood at 1540 nM.
With `O=c1ccn(-c2ccnc(Cl)c2)nc1-c1ccnn1-c1cccc2ncccc12` [Example 58, 1-(2-Chloro-pyridin-4-yl)-3-(2-quinolin-5-yl-2H-pyrazol-3-yl)-1H-pyridazin-4-one], the IC50 was 89 nM.
Take `O=c1ccn(-c2ccnc(Cl)c2)nc1-c1ccnn1-c1cccc2cnccc12` [Example 59, 1-(2-Chloro-pyridin-4-yl)-3-(2-isoquinolin-5-yl-2H-pyrazol-3-yl)-1H-pyridazin-4-one]: the IC50 came out at 220 nM.
As to `O=c1ccn(-c2cncc(Cl)c2)nc1-c1ccnn1-c1cccc2ncccc12` [Example 60, 1-(5-Chloro-pyridin-3-yl)-3-(2-quinolin-5-yl-2H-pyrazol-3-yl)-1H-pyridazin-4-one], the IC50 stood at 78 nM.
For the molecule `O=c1ccn(-c2cncc(Cl)c2)nc1-c1ccnn1-c1ccnc2ccc(Cl)cc12` [Example 61, 1-(5-Chloro-pyridin-3-yl)-3-[2-(6-chloro-quinolin-4-yl)-2H-pyrazol-3-yl]-1H-pyridazin-4-one], the IC50 came out at 220 nM.
Under `O=c1ccn(-c2ccnc(Cl)c2)nc1-c1ccnn1-c1ccnc2ccc(Cl)cc12` [Example 62, 1-(2-Chloro-pyridin-4-yl)-3-[2-(6-chloro-quinolin-4-yl)-2H-pyrazol-3-yl]-1H-pyridazin-4-one] stands 154 nM; under `O=c1ccn(-c2ccnc(Cl)c2)nc1-c1ccnn1-c1ccccc1F` [Example 63, 1-(2-Chloro-pyridin-4-yl)-3-[2-(2-fluoro-phenyl)-2H-pyrazol-3-yl]-1H-pyridazin-4-one], 78 nM; under `O=c1ccn(-c2cncc(Cl)c2)nc1-c1ccnn1-c1ccccc1F` [Example 64, 1-(5-Chloro-pyridin-3-yl)-3-[2-(2-fluoro-phenyl)-2H-pyrazol-3-yl]-1H-pyridazin-4-one], 148 nM.
